Key:
Type in all cases: cell-based, Zymomonas mobilis
ZW658 strain [1] = assay: Flask fermentation of ZW658 on high concentration glucose or xylose alone with sorbitol; details: for OD600: after 48 hours, 33° C.; for ethanol production rate: 20 mM sorbitol vs no sorbitol
Description: (§1) Approximately 1 ml of well mixed sample was obtained from flask or fermentor. First the sample absorbance was measured directly with a spectrophotometer (Amersham Biosciences Ultrospec 3300pro, GE Healthcare, Piscataway, N.J., USA). If the reading was lower than 0.6 unit, no dilution was needed. If the reading was higher than 0.6 unit, the sample was diluted with culture medium until the actual reading was in the range of 0.1 to 0.6 unit. The original OD was calculated from the dilution ratio and the actual reading.
(§2) The analysis of sugars, acetate, ethanol, and other by-products was done with an Agilent 1100 series HPLC and Agilent ChemStation software for LC 3D. The column was BioRad Aminex HPX-87H(HPLC Organic Analysis Column 125-0140) with BioRad Micro-Guard Cartridge Cation-H (125-0129). The operating conditions were:
(§3) Glycerol stock of seed frozen at −80° C. was thawed, then inoculated into sterile culture tubes with mixture of 60 g/L glucose, 20 g/L xylose, 10 g/L yeast extract (YE), 10 g/L KH2PO4, 2 g/L (NH4)2SO4, and 1 g/L MgSO4. Initial pH was adjusted to 5.5 with 4 N KOH. This revival culture was grown statically overnight at 37° C. It was transferred into shake flasks with 75 g/L glucose, 25 g/L xylose, 10 g/L yeast extract (YE), 10 g/L KH2PO4, 2 g/L (NH4)2SO4, and 1 g/L MgSO4. Initial pH was adjusted to 5.5 with 4 N KOH. Growth was monitored by measuring OD600. When the OD reached approximately 5, a certain volume of the seed was withdrawn into a sterile syringe for inoculation.
In four sterilized 125 ml Erlenmeyer culture flasks (Cat. No. 30180-036, VWR International, USA), 10 ml of ZW658 strain seed culture at OD600 of approximately 5 was inoculated into each flask with 100 ml of aqueous solution containing 10 g/L yeast extract (YE), 2 g/L KH2PO4, 4 g/L KHCO3. Before inoculation, the first flask also contained 200 g/L glucose and 20 mM sorbitol, comparing to the second flask with 200 g/L glucose only. The third flask contained 200 g/L xylose and 20 mM sorbitol, comparing to the fourth flask with 200 g/L xylose only. After inoculation, sugar concentrations were diluted to about 180 g/L. Initial pH was adjusted to 5.5 with 4 NH3PO4 solution. Mixing speed was set at 150 rpm. Fermentation was conducted at 33° C. and pH was not controlled. Samples were taken periodically. Samples were filtered through 0.22 micron filters, and the filtrates were analyzed by HPLC as described in General Methods for compounds including glucose, xylose, ethanol, and xylitol. Samples were diluted with medium (as described in General Methods) and the OD600 was measured to monitor cell growth. […] After 48 hours, the OD600 were 9.94, 6.46, 5.37 and 5.45, respectively, for the first, second, third, and fourth flask.

ZW658 strain [2] = assay: 1-liter fermentor, ZW658 on glucose and xylose in the presence of sorbitol and acetate; details: 5.8 g/L acetate, 10 mM sorbitol
Description: as §1, §2, §3
In a sterilized 1-liter fermentor (BIOSTAT® B-DCU system, Sartorius BBI System Inc., Bethlehem, Pa., USA), 50 ml of ZW658 strain seed culture at OD600 of approximately 5 was inoculated into 450 ml of aqueous solution containing sugars and medium. The final mixed broth contained 99.0 g/L glucose, 82.7 g/L xylose, 5.8 g/L acetate (in the form of potassium acetate), 10 g/L yeast extract (YE), 2 g/L KH2PO4, and 10 mM sorbitol. pH was adjusted to 5.5 with 4 N KOH solution. Mixing speed was set at 150 rpm. Fermentation was conducted at 33° C. and pH 5.5. Samples were taken periodically. Samples were filtered through 0.22 micron filters, and the filtrates were analyzed by HPLC as described in General Methods for compounds including glucose, xylose, ethanol, and acetate. Samples were also diluted with medium (as described in General Methods) and the OD600 was measured to monitor cell growth.

ZW658 strain [3] = assay: Flask fermentation of ZW658 on glucose and xylose with acetate and various polyols; details: 10 mM polyol, 3 g/L acetate
Description: as §1, §2, §3
In five sterilized 125 ml Erlenmeyer culture flasks (Cat. No. 30180-036, VWR International, USA), 10 ml of ZW658 strain seed culture at OD600 of approximately 5 was inoculated into each flask with 100 ml of aqueous solution containing 100 g/L glucose, 80 g/L xylose, 3 g/L acetate, 10 g/L yeast extract (YE), 2 g/L KH2PO4, 1 g/L MgSO4.7H2O, and 4 g/L KHCO3, and 10 mM of the following polyols: erythritol, sorbitol, mannitol, maltitol, or lactitol; or 5 mM sorbitol plus 5 mM maltitol, or 5 mM sorbitol plus 5 mM lactitol. After inoculation, the total sugar concentration was about 160 g/L due to dilution by the seed culture. Initial pH was adjusted to 5.5 with 4 N H3PO4 solution. Mixing speed was set at 150 rpm. Fermentation was conducted at 33° C. and pH was not controlled. Samples were taken periodically. Samples were filtered through 0.22 micron filters, and the filtrates were analyzed by HPLC as described in General Methods for compounds including glucose, xylose, ethanol, and acetate. Samples were diluted with medium (as described in General Methods) and the OD600 was measured to monitor cell growth.

## OC[C@@H](O)[C@@H](O)[C@H](O)[C@@H](O)CO [sorbitol]
ZW658 strain [1]; 200 g/L glucose (about 180 g/L after inoculation), 20 mM sorbitol
  OD600: 9.94
ZW658 strain [1]; 200 g/L xylose (about 180 g/L after inoculation), 20 mM sorbitol
  OD600: 5.37
ZW658 strain [1]; glucose culture
  ethanol production rate: more rapid
ZW658 strain [1]; glucose only or xylose only cultures, 20 mM sorbitol
  xylitol production: No xylitol was produced
ZW658 strain [1]; high concentration glucose culture, 20 mM sorbitol
  effect on growth: significantly stimulated growth
ZW658 strain [1]; high concentration xylose culture, 20 mM sorbitol
  effect on growth: almost no effect on growth
ZW658 strain [1]; xylose only culture
  ethanol production rate: at the same rate with and without sorbitol
ZW658 strain [2]; after 63.75 hours (stationary phase)
  by product xylitol concentration: 3.55 g/L
ZW658 strain [2]; after 63.75 hours
  OD600 cells grew to: 6.4
  ethanol concentration: 70.0 g/L
  xylose concentration: 29.6 g/L
ZW658 strain [2]; after 63.75 hours, 99.0 g/L glucose, 82.7 g/L xylose, 33° C., pH 5.5
  glucose concentration: 0 g/L
ZW658 strain [3]
  ethanol production: ethanol production was also better
  xylose utilization: More xylose was utilized
ZW658 strain [3]; after 32 hours, total sugar about 160 g/L
  OD600: 7.88
